{"source": "paper PMC5218480", "about": "(PLoS ONE, 2017)", "test_system": "MV-4-11 cells", "assay": "Gene expression microarray analysis (Affymetrix PrimeView) and GSEA", "assay_type": "cell-based, human", "parameters": "RFU PODN (11730768_x_at) / Fold change /veh PODN (11730768_x_at) / RFU LINC00158 (11744669_a_at) / Fold change /veh LINC00158 (11744669_a_at) / RFU DUSP10 (11751237_a_at) / Fold change /veh DUSP10 (11751237_a_at) / RFU ID3 (11757404_x_at) / Fold change /veh ID3 (11757404_x_at) / RFU PLEKHG5 (11737974_s_at) / Fold change /veh PLEKHG5 (11737974_s_at) / RFU LRRC4B (11730491_at) / Fold change /veh LRRC4B (11730491_at) / RFU GIMAP4 (11747438_a_at) / Fold change /veh GIMAP4 (11747438_a_at) / RFU KRT8 (11758183_x_at) / Fold change /veh KRT8 (11758183_x_at) / RFU CNN1 (11734310_a_at) / Fold change /veh CNN1 (11734310_a_at) / RFU VPS37D (11726825_at) / Fold change /veh VPS37D (11726825_at) / RFU C10orf10 (11716522_x_at) / Fold change /veh C10orf10 (11716522_x_at) / RFU KIR2DL2 /// KIR2DL4 /// KIR2DL5A /// KIR2DL5B /// KIR2DS1 /// KIR2DS2 /// KIR2DS3 /// KIR2DS4 /// KIR3DL3 /// KIR3DL3 /// KIR3DS1 (11738374_at) / Fold change /veh KIR2DL2 /// KIR2DL4 /// KIR2DL5A /// KIR2DL5B /// KIR2DS1 /// KIR2DS2 /// KIR2DS3 /// KIR2DS4 /// KIR3DL3 /// KIR3DL3 /// KIR3DS1 (11738374_at) / RFU C1QL1 (11718748_at) / Fold change /veh C1QL1 (11718748_at) / RFU TMPRSS4 (11747572_a_at) / Fold change /veh TMPRSS4 (11747572_a_at) / RFU HAMP (11756126_x_at) / Fold change /veh HAMP (11756126_x_at) / RFU RNFT2 (11725882_a_at) / Fold change /veh RNFT2 (11725882_a_at) / RFU NR4A2 (11747474_a_at) / Fold change /veh NR4A2 (11747474_a_at) / RFU ABCC12 (11746883_a_at) / Fold change /veh ABCC12 (11746883_a_at) / RFU TMEM136 (11760407_x_at) / Fold change /veh TMEM136 (11760407_x_at) / RFU CLDN22 /// WWC2 (11732394_at) / Fold change /veh CLDN22 /// WWC2 (11732394_at) / RFU HLA-DPB1 (11760878_x_at) / Fold change /veh HLA-DPB1 (11760878_x_at) / RFU SPINT1 (11716480_a_at) / Fold change /veh SPINT1 (11716480_a_at) / RFU GAP43 (11754022_s_at) / Fold change /veh GAP43 (11754022_s_at) / RFU A4GNT (11735810_at) / Fold change /veh A4GNT (11735810_at) / RFU PRB3 (11715151_x_at) / Fold change /veh PRB3 (11715151_x_at) / RFU TUBB4B (11761932_at) / Fold change /veh TUBB4B (11761932_at) / RFU CAPN14 (11732068_a_at) / Fold change /veh CAPN14 (11732068_a_at) / RFU TMCC2 (11721928_a_at) / Fold change /veh TMCC2 (11721928_a_at) / RFU IRGQ (11745062_a_at) / Fold change /veh IRGQ (11745062_a_at) / RFU FAM174B (11720279_a_at) / Fold change /veh FAM174B (11720279_a_at) / RFU TMPRSS4 (11748680_a_at) / Fold change /veh TMPRSS4 (11748680_a_at) / RFU FAM212B (11763350_a_at) / Fold change /veh FAM212B (11763350_a_at) / RFU PLEKHG5 (11743358_a_at) / Fold change /veh PLEKHG5 (11743358_a_at) / RFU ZSCAN30 (11745921_a_at) / Fold change /veh ZSCAN30 (11745921_a_at) / RFU CMKLR1 (11741424_a_at) / Fold change /veh CMKLR1 (11741424_a_at) / RFU LOC101060620 /// MAPK8IP1 (11723275_at) / Fold change /veh LOC101060620 /// MAPK8IP1 (11723275_at) / RFU SPTSSB (11747773_x_at) / Fold change /veh SPTSSB (11747773_x_at) / RFU PRSS12 (11739890_at) / Fold change /veh PRSS12 (11739890_at) / RFU BIN1 (11741810_x_at) / Fold change /veh BIN1 (11741810_x_at) / RFU WNT11 (11732464_a_at) / Fold change /veh WNT11 (11732464_a_at) / RFU C10orf10 (11716521_a_at) / Fold change /veh C10orf10 (11716521_a_at) / RFU C5orf56 (11738089_at) / Fold change /veh C5orf56 (11738089_at) / RFU CYB561 (11721691_x_at) / Fold change /veh CYB561 (11721691_x_at) / RFU ANKRD19P (11752326_a_at) / Fold change /veh ANKRD19P (11752326_a_at) / RFU OR2T12 /// OR2T33 /// OR2T8 (11738714_s_at) / Fold change /veh OR2T12 /// OR2T33 /// OR2T8 (11738714_s_at) / RFU VCAN (11748164_a_at) / Fold change /veh VCAN (11748164_a_at) / RFU JSRP1 (11732532_at) / Fold change /veh JSRP1 (11732532_at) / RFU KRTAP10-11 (11738290_x_at) / Fold change /veh KRTAP10-11 (11738290_x_at) / RFU MYO3A (11730013_a_at) / Fold change /veh MYO3A (11730013_a_at) / RFU EBF3 (11725865_a_at) / Fold change /veh EBF3 (11725865_a_at) / RFU CAMK2N1 (11719241_x_at) / Fold change /veh CAMK2N1 (11719241_x_at) / RFU C5orf56 (11738088_a_at) / Fold change /veh C5orf56 (11738088_a_at) / RFU OLFML3 (11715873_a_at) / Fold change /veh OLFML3 (11715873_a_at) / RFU LOC100653217 /// NTM (11731650_a_at) / Fold change /veh LOC100653217 /// NTM (11731650_a_at) / RFU MAPK11 (11762145_a_at) / Fold change /veh MAPK11 (11762145_a_at) / RFU FIZ1 (11724087_x_at) / Fold change /veh FIZ1 (11724087_x_at) / RFU OASL (11726364_x_at) / Fold change /veh OASL (11726364_x_at) / RFU SOX15 (11748057_x_at) / Fold change /veh SOX15 (11748057_x_at) / RFU CD79A (11719716_a_at) / Fold change /veh CD79A (11719716_a_at) / RFU HIST1H1D (11736915_at) / Fold change /veh HIST1H1D (11736915_at) / RFU CASKIN2 (11723855_a_at) / Fold change /veh CASKIN2 (11723855_a_at) / RFU LOC730098 (11760151_x_at) / Fold change /veh LOC730098 (11760151_x_at) / RFU OR4N2 (11742367_at) / Fold change /veh OR4N2 (11742367_at) / RFU PRRT2 (11749266_a_at) / Fold change /veh PRRT2 (11749266_a_at) / RFU SNX32 (11753110_a_at) / Fold change /veh SNX32 (11753110_a_at) / RFU CDHR5 (11726645_a_at) / Fold change /veh CDHR5 (11726645_a_at) / RFU RCAN1 (11760418_a_at) / Fold change /veh RCAN1 (11760418_a_at) / RFU FAM167A (11723789_a_at) / Fold change /veh FAM167A (11723789_a_at) / RFU FAM26E (11764081_at) / Fold change /veh FAM26E (11764081_at) / RFU ISYNA1 (11749810_s_at) / Fold change /veh ISYNA1 (11749810_s_at) / RFU ACY1 (11761880_at) / Fold change /veh ACY1 (11761880_at) / RFU 11764098_at / Fold change /veh 11764098_at / RFU SAMD14 (11745864_x_at) / Fold change /veh SAMD14 (11745864_x_at) / RFU NPB (11741838_a_at) / Fold change /veh NPB (11741838_a_at) / RFU TMPRSS6 (11731388_a_at) / Fold change /veh TMPRSS6 (11731388_a_at) / RFU KRTAP10-2 (11738614_at) / Fold change /veh KRTAP10-2 (11738614_at) / RFU ARHGAP8 /// PRR5-ARHGAP8 (11727945_x_at) / Fold change /veh ARHGAP8 /// PRR5-ARHGAP8 (11727945_x_at) / RFU KRTAP5-7 /// NADSYN1 (11734609_at) / Fold change /veh KRTAP5-7 /// NADSYN1 (11734609_at) / RFU RASL12 (11751679_a_at) / Fold change /veh RASL12 (11751679_a_at) / RFU CDKN2B (11736163_a_at) / Fold change /veh CDKN2B (11736163_a_at) / RFU PRF1 (11729649_at) / Fold change /veh PRF1 (11729649_at) / RFU, ZNF638 /// ZNF638-IT1 / Fold change vs veh, ZNF638 /// ZNF638-IT1 / RFU, PANK3 / Fold change vs veh, PANK3 / RFU, SH3YL1 / Fold change vs veh, SH3YL1 / RFU, ZEB2 / Fold change vs veh, ZEB2 / RFU, NRIP1 / Fold change vs veh, NRIP1 / RFU, PTTG1IP / Fold change vs veh, PTTG1IP / RFU, CAPN2 / Fold change vs veh, CAPN2 / RFU, MED14 / Fold change vs veh, MED14 / RFU, SNORA58 / Fold change vs veh, SNORA58 / RFU, C1orf63 / Fold change vs veh, C1orf63 / RFU, LRRFIP1 / Fold change vs veh, LRRFIP1 / RFU, NDUFAF7 / Fold change vs veh, NDUFAF7 / RFU, SLC12A2 / Fold change vs veh, SLC12A2 / RFU, IBTK / Fold change vs veh, IBTK / RFU, ESF1 / Fold change vs veh, ESF1 / Fold change vs veh, TMEM50B / RFU, TAOK1 / Fold change vs veh, TAOK1 / RFU, ACBD3 / Fold change vs veh, ACBD3 / RFU, TMA16 / Fold change vs veh, TMA16 / RFU, RWDD3 / Fold change vs veh, RWDD3 / RFU, BCAT1 / Fold change vs veh, BCAT1 / RFU, EDEM3 / Fold change vs veh, EDEM3 / RFU, TMEM33 / Fold change vs veh, TMEM33 / RFU, WDR75 / Fold change vs veh, WDR75 / RFU, AHCTF1 / Fold change vs veh, AHCTF1 / RFU, TFRC / Fold change vs veh, TFRC / RFU, ZDHHC17 / Fold change vs veh, ZDHHC17 / RFU, NOM1 / Fold change vs veh, NOM1 / RFU, ARL8B / Fold change vs veh, ARL8B / RFU, ZBTB11 / Fold change vs veh, ZBTB11 / RFU, TAMM41 / Fold change vs veh, TAMM41 / RFU, KIAA1704 /// LOC100996395 / Fold change vs veh, KIAA1704 /// LOC100996395 / RFU, ING1 / Fold change vs veh, ING1 / RFU, TRMT61B / Fold change vs veh, TRMT61B / RFU, FUBP3 / Fold change vs veh, FUBP3 / RFU, TP53 / Fold change vs veh, TP53 / RFU, TNKS2 / Fold change vs veh, TNKS2 / RFU, ZFP14 / Fold change vs veh, ZFP14 / RFU, ACTR2 / Fold change vs veh, ACTR2 / RFU, PPP3R1 / Fold change vs veh, PPP3R1 / RFU, PIK3R1 / Fold change vs veh, PIK3R1 / RFU, HNRNPA1 / Fold change vs veh, HNRNPA1 / RFU, RNF170 / Fold change vs veh, RNF170 / RFU, ZNF28 / Fold change vs veh, ZNF28 / RFU, RNGTT / Fold change vs veh, RNGTT / RFU, OGT / Fold change vs veh, OGT / RFU, BRD1 / Fold change vs veh, BRD1 / RFU, MARS / Fold change vs veh, MARS / RFU, ZNF655 / Fold change vs veh, ZNF655 / RFU, FAHD1 / Fold change vs veh, FAHD1 / RFU, BDP1 / Fold change vs veh, BDP1 / RFU, LRRCC1 / Fold change vs veh, LRRCC1 / RFU, ARID1A / Fold change vs veh, ARID1A / RFU, ZNF146 / Fold change vs veh, ZNF146 / RFU, ZNF330 / Fold change vs veh, ZNF330 / RFU, GPN3 / Fold change vs veh, GPN3 / RFU, C9orf123 / Fold change vs veh, C9orf123 / RFU, N4BP2L2 / Fold change vs veh, N4BP2L2 / RFU, ARFIP1 / Fold change vs veh, ARFIP1 / RFU, FAM179B / Fold change vs veh, FAM179B / RFU, BCL10 / Fold change vs veh, BCL10 / RFU, UHRF1BP1L / Fold change vs veh, UHRF1BP1L / RFU, BET1 / Fold change vs veh, BET1 / RFU, CNOT2 / Fold change vs veh, CNOT2 / RFU, ZNF268 / Fold change vs veh, ZNF268 / Fold change vs veh, ZNF507 / RFU, DGCR2 / Fold change vs veh, DGCR2 / RFU, WDSUB1 / Fold change vs veh, WDSUB1 / Fold change vs veh, HSP90B1 /// MIR3652 / RFU, ADSS / Fold change vs veh, ADSS / RFU, GK / Fold change vs veh, GK / RFU, ZNF148 / Fold change vs veh, ZNF148 / RFU, TAF9 / Fold change vs veh, TAF9 / RFU, SLC1A5 / Fold change vs veh, SLC1A5 / RFU, SLMO2 / Fold change vs veh, SLMO2 / RFU, ABCC4 / Fold change vs veh, ABCC4 / RFU, LOC101060439 /// RAP1B / Fold change vs veh, LOC101060439 /// RAP1B / RFU, RFX7 / Fold change vs veh, RFX7 / RFU, GTPBP10 / Fold change vs veh, GTPBP10 / RFU, CNEP1R1 / Fold change vs veh, CNEP1R1 / RFU, BIVM-ERCC5 /// ERCC5 / Fold change vs veh, BIVM-ERCC5 /// ERCC5 / RFU, ILF3 / Fold change vs veh, ILF3 / RFU 11762660_at / Fold change /veh 11762660_at / RFU VCAN (11757783_s_at) / Fold change /veh VCAN (11757783_s_at) / RFU DDX43 (11728927_at) / Fold change /veh DDX43 (11728927_at) / RFU KRT8 (11758188_x_at) / Fold change /veh KRT8 (11758188_x_at) / RFU NKD1 (11759106_at) / Fold change /veh NKD1 (11759106_at) / RFU SRD5A1 (11742802_a_at) / Fold change /veh SRD5A1 (11742802_a_at) / RFU TPSAB1 /// TPSB2 (11721975_s_at) / Fold change /veh TPSAB1 /// TPSB2 (11721975_s_at) / RFU GSTM3 (11746129_a_at) / Fold change /veh GSTM3 (11746129_a_at) / RFU IL23R (11737362_x_at) / Fold change /veh IL23R (11737362_x_at) / RFU TMEM51 (11727254_a_at) / Fold change /veh TMEM51 (11727254_a_at) / RFU PIWIL2 (11732686_x_at) / Fold change /veh PIWIL2 (11732686_x_at) / RFU ORM1 (11744905_x_at) / Fold change /veh ORM1 (11744905_x_at) / RFU CCDC152 (11743942_at) / Fold change /veh CCDC152 (11743942_at) / RFU ECM1 (11717891_a_at) / Fold change /veh ECM1 (11717891_a_at) / RFU IL23R (11748794_a_at) / Fold change /veh IL23R (11748794_a_at) / RFU TNFAIP8L3 (11732012_x_at) / Fold change /veh TNFAIP8L3 (11732012_x_at) / RFU MBOAT4 (11741988_at) / Fold change /veh MBOAT4 (11741988_at) / RFU 11764193_at / Fold change /veh 11764193_at / RFU TMEM53 (11763286_at) / Fold change /veh TMEM53 (11763286_at) / RFU MAGEB2 (11727129_at) / Fold change /veh MAGEB2 (11727129_at) / RFU TMEM200A (11744735_a_at) / Fold change /veh TMEM200A (11744735_a_at) / RFU CCDC152 (11751479_a_at) / Fold change /veh CCDC152 (11751479_a_at) / RFU FAM211A (11726209_a_at) / Fold change /veh FAM211A (11726209_a_at) / RFU RGS16 (11746705_a_at) / Fold change /veh RGS16 (11746705_a_at) / RFU VCAN (11755009_s_at) / Fold change /veh VCAN (11755009_s_at) / RFU RHOB (11743442_s_at) / Fold change /veh RHOB (11743442_s_at) / RFU RGS16 (11720943_a_at) / Fold change /veh RGS16 (11720943_a_at) / RFU RGS16 (11720944_at) / Fold change /veh RGS16 (11720944_at) / RFU, VPS4B / Fold change vs veh, VPS4B / RFU, CREB1 / Fold change vs veh, CREB1 / RFU, DNAJC13 / Fold change vs veh, DNAJC13 / RFU, GNAQ / Fold change vs veh, GNAQ / RFU, CDK5R1 / Fold change vs veh, CDK5R1 / RFU, ZRANB3 / Fold change vs veh, ZRANB3 / RFU, CUL4A / Fold change vs veh, CUL4A / RFU, CCNY / Fold change vs veh, CCNY / RFU, UFL1 / Fold change vs veh, UFL1 / RFU, COG3 / Fold change vs veh, COG3 / RFU, DIAPH2 / Fold change vs veh, DIAPH2 / RFU, SKA2 / Fold change vs veh, SKA2 / RFU, AFF3 / Fold change vs veh, AFF3 / RFU, LMF1 / Fold change vs veh, LMF1 / RFU, IPO11 / Fold change vs veh, IPO11 / RFU, DFFB / Fold change vs veh, DFFB / RFU, FOXP1 / Fold change vs veh, FOXP1 / RFU, CARD8 / Fold change vs veh, CARD8 / RFU, STRN3 / Fold change vs veh, STRN3 / RFU, ADK / Fold change vs veh, ADK / RFU, RASSF2 / Fold change vs veh, RASSF2 / RFU, WIPF1 / Fold change vs veh, WIPF1 / RFU, LARP1B / Fold change vs veh, LARP1B / RFU, RASA1 / Fold change vs veh, RASA1 / RFU, RB1 / Fold change vs veh, RB1 / RFU, PPFIA1 / Fold change vs veh, PPFIA1 / RFU, MAT2A / Fold change vs veh, MAT2A / RFU, CCT5 / Fold change vs veh, CCT5 / RFU, WDR92 / Fold change vs veh, WDR92 / RFU, CUX1 / Fold change vs veh, CUX1 / RFU, TTC7A / Fold change vs veh, TTC7A / RFU, TMEM135 / Fold change vs veh, TMEM135 / RFU, DEPTOR / Fold change vs veh, DEPTOR / RFU, CPM / Fold change vs veh, CPM / RFU, DNAJB6 / Fold change vs veh, DNAJB6 / RFU, CACNA2D3 / Fold change vs veh, CACNA2D3 / RFU, DTX4 / Fold change vs veh, DTX4 / RFU, TFCP2 / Fold change vs veh, TFCP2 / RFU, GMCL1 /// GMCL1P1 / Fold change vs veh, GMCL1 /// GMCL1P1 / RFU, AEBP2 / Fold change vs veh, AEBP2 / RFU, SNHG1 /// SNORD22 /// SNORD25 /// SNORD26 /// SNORD27 /// SNORD28 /// SNORD29 /// SNORD31 / Fold change vs veh, SNHG1 /// SNORD22 /// SNORD25 /// SNORD26 /// SNORD27 /// SNORD28 /// SNORD29 /// SNORD31 / Fold change (Aza/veh), C12orf56 (ProbeSet 11735607_a_at) / Fold change (ACY-1035/veh), C12orf56 (ProbeSet 11735607_a_at) / Fold change (Aza/veh), FGFR1OP (ProbeSet 11751329_s_at) / Fold change (ACY-1035/veh), FGFR1OP (ProbeSet 11751329_s_at) / Fold change (Aza/veh), VPS36 (ProbeSet 11739960_a_at) / Fold change (ACY-1035/veh), VPS36 (ProbeSet 11739960_a_at) / RFU SYPL1 (11715823_x_at) / Fold change /veh SYPL1 (11715823_x_at) / RFU IGFBP7 (11715501_s_at) / Fold change /veh IGFBP7 (11715501_s_at) / RFU REEP3 (11722064_at) / Fold change /veh REEP3 (11722064_at) / RFU IGLL1 (11728026_x_at) / Fold change /veh IGLL1 (11728026_x_at): dose or concentration left out as unconfirmed", "conditions": "ProbeSet 11718977_a_at; LIST B", "data": [{"smiles": "Nc1ccc(-c2cccs2)cc1NC(=O)c1ccc2c(c1)cc(C1CC1)n2CCN1CCOCC1", "note": "[ACY-1035]", "values": [{"measurement": "Fold change vs veh, CAPN2", "result": 0.88}]}]}
